Consider seven compounds from patent publication US8080529B2, “Macrolides with anti-inflammatory activity” (Glaxo Group Limited, priority 2005, dated 2011).

Broadly, the inhibition is the relative decrease from the control value, in per cent.

Data set [1] deals with granulocytes. Type of data set: in vitro ADME. As to conditions: human, 180 min, 10 μM. As for the experimental part: (§1) Granulocytes were obtained from heparinized whole blood using density gradiant centrifugation. Erythrocytes were sedimented on 3% dextran T-500 (Amersham Pharmacia Biotech AB, Uppsala, Sweden). Leukocytes were centrifuged on Ficoll (Amersham Pharmacia Biotech AB, Uppsala, Sweden) for 35 min at 600 g at 20° C. The pellet of granulocytes was cleared from remaining erythrocytes by a brief hypotonic lysis.
7.5×10^6 granulocytes, isolated as described above, were suspended in 3 mL of RPMI 1640 (Institute of Immunology, Croatia) containing 10 μM of tested macrolide. Samples were incubated at 37° C. for 180 min. Following incubation, the samples were centrifuged through the layer of Poly(dimethylsiloxane-co-diphenylsiloxane), dihydroxy terminated-silicone oil (Aldrich Chemical Company, Milwaukee, USA). The pellet was resuspended in 0.5% Triton X-100 (Sigma, St. Louis, USA) in deionized water (MilliQ, Millipore Corporation, Bedford, USA). The suspension was sonicated, proteins were precipitated with acetonitrile, and the concentration of macrolide in the supernatants was determined by liquid chromatography-mass spectrometry (LC-MS).
Intracellular concentrations of the test compounds were calculated from the mean cell number recovered after centrifuging through silicone oil. According to the literature, about 1 million neutrophils is considered to have a volume of 0.24 μL (Vazifeh et al., Antimicrob Agents Chemo. 1997; 41: 2099-2107). To estimate the extent of macrolide accumulation, the intracellular to extracellular concentration ratio (I/E) was calculated, where E (due to a large volume of incubation medium) was taken as constant (10 μM). Results are expressed relative to azithromycin according to the following equation: % of azithromycin uptake =(I/E of a substance/I/E of azithromycin)×100. I/E values obtained for azithromycin were 164±10.

Data set [2] has as its system IL-6. Nature of the data set: Lung neutrophilia induced by bacterial lipopolysaccharide in male BALB/cJ mice: IL-6 in BALF. As to conditions: 5 mg i.p.; 24 hours after LPS. It is filed as in vivo. The method, then: (§2) Male BALB/cJ mice (Iffa Credo, France), with average weight 30 g were randomly grouped (n=7 in testing group, 8 in positive control, 7 in negative control). Mice were administered intraperitoneally (i.p.) a single dose of 5 or 2.5 mg of test compound. Two hours after administration, 2 μg of bacterial lipopolysaccharide (LPS), dissolved in PBS in a volume of 60 μL, was intranasally administered to all experimental groups except the negative control group, which received the same volume (60 μL) of vehicle PBS. Animals were sacrificed approximately 24 hours after application of LPS in order to obtain bronchoalveolar lavage fluid (BALF), which was used to determine concentrations of IL-6 and TNF-α, absolute number of cells, and the percentage of neutrophils in BALF. Results are expressed as percentage of decrease of total cell number, relative number of neutrophils, and TNF-α, and IL-6 concentration in BALF of treated animals compared to positive control (LPS stimulated, but untreated animals).
(§3) Results are expressed as percentage of decrease of total cell number, relative number of neutrophils, and TNF-alpha and IL-6 concentration in BALF of treated animals compared to positive control (LPS stimulated, but untreated animals).

In data set [3] the test system is TNF-α. Nature of the data set: Lung neutrophilia induced by bacterial lipopolysaccharide in male BALB/cJ mice: TNF-α in BALF. The settings on record: 5 mg i.p.; 24 hours after LPS. It is filed as in vivo. As for the experimental part:
as §2, §3

Data set [4] deals with neutrophils. Nature of the data set: Lung neutrophilia induced by bacterial lipopolysaccharide in male BALB/cJ mice: cells in BALF and lung tissue. It is filed as in vivo. As to conditions: 5 mg i.p.; 24 hours after LPS. As for the experimental part:
as §2, §3
Besides accumulation of inflammatory cells in BALF, the extent and anatomic site of pulmonary inflammation induced by LPS was assessed 24 hours after PBS or LPS exposure. Accumulation of granulocytes and mononuclear cells in peribronchial (PB) and perivascular (PV) lung tissue areas and in alveolar spaces was monitored following sacrifice of the animals.

For data set [5], the system named is IL-2. Nature of the data set: Inhibition of IL-2 production by PHA-stimulated human PBMC in vitro. Type of data set: cell-based. As to conditions: Homo sapiens, 72 h, 3 days, read-out: Percentage of inhibition of IL-2 production. The method, then:
(§4) Heparinized peripheral blood was obtained from healthy donors, and peripheral blood mononuclear cells (PBMC) were isolated by Histopaque 1077 (Sigma, USA) density centrifugation at 400×g for 30 minutes. Collected PBMC were centrifuged in plasma at 400×g for 10 min, resuspended and washed in RPMI 1640 (Institute of Immunology, Croatia) by centrifugation.
(§5) Peripheral blood mononuclear cells (PBMC), isolated as described above, were seeded in a 48-well plate at a concentration of 1×10^6 cells per well in the RPMI culture medium described above. Cells were stimulated with 10 μg/mL phytohaemagglutinin (PHA) (Sigma, USA) and incubated at 37° C., 5% CO2 in 90% humidity with tested compounds (10 and 50 μM) for 3 days. Cytokine concentrations were determined in supernatants by sandwich ELISA, using capture and detection antibodies (R&D, USA) according to the manufacturer's recommendations.
(§6) Inhibition (as percentage) was calculated using the following formula: % inhibition=(1−concentration of cytokines in sample/concentration of cytokines in positive control)×100.
(§7) The positive control refers to LPS-, PMA- or zymosan-stimulated samples that were not treated with test compounds.

Data set [6] relates to IL-5. Description: Inhibition of IL-5 production by PHA-stimulated human PBMC in vitro. It is filed as cell-based. The settings on record: Homo sapiens, 72 h, 3 days, read-out: Percentage of inhibition of IL-5 production. As for the experimental part:
as §4, §5, §6, §7

For data set [7], the system named is granulocytes. Nature of the data set: Inhibition of degranulation of granulocytes (free neutrophil elastase activity). As to conditions: Homo sapiens, Neutrophil, read-out: Percentage of inhibition of degranulation of granulocytes; for inhibition at 10 µM: compound 10 μM; for inhibition at 50 µM: compound 50 μM. Type of data set: cell-based, human. The method, then:
as §1
1×10^6 granulocytes, isolated as described above, were resuspended in RPMI-1640 medium (Institute of Immunology, Croatia), and were incubated with 10 or 50 μM of test compound together with cytochalasine B (5 μg/mL) for 2 h at 37° C. Degranulation then was induced by the addition of 0.1 μM fMLP (Sigma, USA) or 0.5 μM A23187 (Calbiochem, USA). The activity of free neutrophil elastase was determined with a chromogenic substrate specific for human neutrophil elastase, such as N-(methoxysuccinyl)-L-alanyl-L-alanyl-L-prolyl-L-valine 4-nitroanilide (Sigma Chemical Company, St Louis, Mo., USA). Elastase activity, as a marker of primary granules, was assessed in supernatant using a spectrophotometer at an absorbance of 405 nm.
Results are expressed as the percent of inhibition of degranulation in unstimulated cells, and in stimulated cells treated with fMLP or A23187.

Molecules are shown by their SMILES. Like-named read-outs stand apart in the source and are kept apart here.

Consider `CC[C@H]1OC(=O)[C@H](C)[C@@H](O[C@H]2C[C@@](C)(OC)[C@@H](OC(=O)CCN(CC)CC)[C@H](C)O2)[C@H](C)[C@@H](O[C@@H]2O[C@H](C)C[C@H](N(C)C)[C@H]2O)[C@](C)(OC)C[C@@H](C)NC(=O)[C@H](C)[C@@H](O)[C@]1(C)O` [Example 3, 4″-O-(3-Diethylamino-Propionyl)-6-O-methyl-8a-aza-8a-homoerythromycin A], for which the “Uptake (% azithromycin)” value in data set [1] is recorded as 15 % azithromycin.

As to `CC[C@H]1OC(=O)[C@H](C)[C@@H](O[C@H]2C[C@@](C)(OC)[C@@H](OC(=O)CCN(CC)CC)[C@H](C)O2)[C@H](C)[C@@H](O[C@@H]2O[C@H](C)C[C@H](N(C)C)[C@H]2O)[C@](C)(OC)C[C@@H](C)C(=O)[C@H](C)[C@H]2NC(=O)O[C@@]21C` [Example 9, 11,12-Carbamate-11,12-dideoxy-4″-O-(3-diethylamino-propionyl)-6-O-methyl-erythromycin A], the “Uptake (% azithromycin)” value in data set [1] is given as 412 % azithromycin.

For `CC[C@H]1OC(=O)[C@H](C)[C@@H](O[C@H]2C[C@@](C)(OC)[C@@H](OC(=O)CCN(C)C)[C@H](C)O2)[C@H](C)[C@@H](O[C@@H]2O[C@H](C)C[C@H](N(C)C)[C@H]2O)[C@](C)(OC)C[C@@H](C)C(=O)N[C@H](C)[C@@H](O)[C@]1(C)O` [Example 12, 4″-O-(3-dimethylamino-propionyl)-6-O-methyl-9a-aza-9a-homoerythromycin A], the “Percentage of decrease of IL-6 concentration in BALF” value in data set [2] was 45%. In addition, the “Percentage of decrease of TNF-α concentration in BALF” value in data set [3] is listed as 87%. In data set [4], the “% decrease of neutrophils in BALF” value is recorded as 46% and the “% decrease of total cell no. in BALF” value is given as 88%.

In the case of `CC[C@H]1OC(=O)[C@H](C)[C@@H](O[C@H]2C[C@@](C)(OC)[C@@H](OC(=O)CCN(CC)CC)[C@H](C)O2)[C@H](C)[C@@H](O[C@@H]2O[C@H](C)C[C@H](N(C)C)[C@H]2O)[C@](C)(O)C[C@@H](C)CN(C)[C@H](C)[C@@H](O)[C@]1(C)O` [Example 48, 4″-O-(3-diethylamino-propionyl)-azithromycin], in data set [2], the “Percentage of decrease of IL-6 concentration in BALF” value was 9%. Moreover, the “Percentage of decrease of TNF-α concentration in BALF” value in data set [3] amounted to 85%. The “Uptake (% azithromycin)” value in data set [1] was 125 % azithromycin. In data set [4], the “% decrease of neutrophils in BALF” value came out at 66% and the “% decrease of total cell no. in BALF” value was 79%.

`CC[C@H]1OC(=O)[C@H](C)C(O[C@H]2C[C@@](C)(OC)[C@@H](OC(=O)CCN(CC)CC)[C@H](C)O2)[C@H](C)[C@@H](O[C@@H]2O[C@H](C)C[C@H](N(C)C)[C@H]2O)[C@](C)(OC)C[C@@H](C)C(=O)[C@H](C)[C@H](O)[C@]1(C)O` (some centres unmarked) [Example 49, 4″-O-(3-Diethylamino-propionyl)-6-O-methylerithromycin A]: the inhibition at 10 µM in data set [5] was 51%; in data set [6], 59%; in data set [7] (A23187 0.5 μM) it was 10%; in data set [7] (fMLP 0.1 μM), 47%. Further, the inhibition at 50 µM in data set [5] turned out to be 100%; in data set [6] it was 81%; in data set [7] (A23187 0.5 μM), 51%; in data set [7] (fMLP 0.1 μM), 72%. The “Uptake (% azithromycin)” value in data set [1] was more than 600 % azithromycin.

Consider `CC[C@H]1OC(=O)[C@H](C)[C@@H](O[C@H]2C[C@@](C)(OC)[C@@H](OC(=O)CCN(CC)CC)[C@H](C)O2)[C@H](C)[C@@H](O[C@@H]2O[C@H](C)C[C@H](NC)[C@H]2O)[C@](C)(OC)C[C@@H](C)C(=O)N[C@H](C)[C@@H](O)[C@]1(C)O` [Example 54, 3′-N-Demethyl-4″-O-(3-diethylaminopropionyl)-6-O-methyl-9a-aza-9a-homoerythromycin A], for which the “Percentage of decrease of IL-6 concentration in BALF” value in data set [2] amounted to 100%. The “Percentage of decrease of TNF-α concentration in BALF” value in data set [3] turned out to be 100%. Moreover, in data set [4], the “% decrease of neutrophils in BALF” value was 70% and the “% decrease of total cell no. in BALF” value is 90%.

With `CC[C@H]1OC(=O)[C@H](C)[C@@H](O[C@H]2C[C@@](C)(OC)[C@@H](O)[C@H](C)O2)[C@H](C)[C@@H](O[C@@H]2O[C@H](C)C[C@H](N(C)C)[C@H]2O)[C@](C)(OC)C[C@@H](C)C(=O)[C@H](C)[C@@H](O)[C@]1(C)O` [clarithromycin, reference compound], in data set [5], the inhibition at 10 µM is 0% and the inhibition at 50 µM came to 3%. Besides, in data set [6], the inhibition at 10 µM turned out to be 13% and the inhibition at 50 µM amounted to 47%. For the same compound, the “Percentage of decrease of IL-6 concentration in BALF” value in data set [2] was 60%. For the same compound, the “Percentage of decrease of TNF-α concentration in BALF” value in data set [3] is 78%. Besides, in data set [4], the “% decrease of neutrophils in BALF” value was determined as 36% and the “% decrease of total cell no. in BALF” value is given as 77%.
